Test results published in patent US6566512B1, “ARV1, a protein involved in sterol uptake and sterol homeostasis in the budding yeast, S-cerevisiae, and a functional human ARV1” (The Trustees of Columbia University in the City of New York, priority 2000, dated 2003).

Tested on: arv1D cells
Assay: Polyene (nystatin) sensitivity of arv1 deletion yeast, growth on plates
Format: cell-based, Saccharomyces cerevisiae
Details: for polyene sensitivity of yeast strains deleted for the ARV1 gene (arv1Δ): concentration not given
Experimental: FIGS. 1A-1C arv1 mutant phenotypes. FIG. 1A, Temperature and nystatin sensitivity. 5-fold dilutions of cells were grown as indicated for three days on YEPD +/−5 μg/ml nystatin (10 mg/ml in propylene glycol). FIG. 1B, Characterization of sterol levels. Cells were labeled with [^3H]acetate and lipids extracted and analyzed by TLC. Data from three independent assays of two strains of each genotype is expressed as mean ratio over wild-type (±SEM; statistical significance by paired t-tests, *p<0.05 or **p<0.01 compared to wild-type). Hatched bars wild-type, gray bars=arv1D. FIG. 1C, Subcellular sterol accumulation. Cell membrane preparations were subjected to subcellular fractionation. Lipid composition is presented as ratio of [^3H]acetate in sterol and [^14C]oleate in phospholipids (top panels). Hatched bars=wild-type, gray bars=arv1D. Note scale differences between the upper panels. Fractions were characterized with specific antibodies against the plasma membrane ATPase (Pma1p, provided by Amy Chang), and 100 kDa subunit of integral vacuolar membrane H^+ATPase (Vph1p, Molecular Probes). Bottom panels show densitometry analysis of western blots expressed as percentage of total arbitrary units (Pma1p; closed boxes, Vph1p; open triangles). The integral ER membrane protein, dolichol phosphate mannose synthase cofractionated with Vph1p.
Mutations in sterol trafficking genes may alter membrane sterol levels. arv1D cells are sensitive to nystatin (FIG. 1a), a polyene antibiotic that disrupts membranes in part by interaction with sterols^10. Nystatin partitioning into membranes is sensitive to both sterol organization and levels^10. […] Iodine staining of sterol mass following extraction and thin layer chromatography (TLC) analysis reflected these differences (not shown).

Structure (SMILES) | polyene sensitivity of yeast strains deleted for the ARV1 gene (arv1Δ) | sensitivity of arv1D cells to nystatin (growth, FIG. 1a) (5-fold dilutions of cells grown three days on YEPD +/- 5 μg/ml nystatin, compared with wild-type)
C[C@@H]1[C@H](O)[C@@H](C)/C=C/C=C/C=C/C=C/C=C/C=C/C=C/[C@H](O[C@@H]2O[C@H](C)[C@@H](O)[C@H](N)[C@@H]2O)C[C@@H]2O[C@](O)(C[C@@H](O)C[C@@H](O)[C@H](O)CC[C@@H](O)C[C@@H](O)CC(=O)O[C@H]1C)C[C@H](O)[C@H]2C(=O)O [amphotericin B] | sensitive | –
CCCCC[C@@H](O)[C@H]1C(=O)O[C@H](C)[C@@H](O)/C=C/C=C/C=C/C=C/C=C(\C)[C@@H](O)C[C@H](O)C[C@H](O)C[C@H](O)C[C@H](O)C[C@H](O)C[C@@H]1O [filipin] | sensitive | –
C[C@@H]1[C@H](O)[C@@H](C)/C=C/C=C/CC/C=C/C=C/C=C/C=C/C(O[C@H]2O[C@H](C)[C@@H](O)[C@H](N)[C@@H]2O)CC2O[C@](O)(CC(O)C(O)CCC(O)CC(O)CC(O)CC(=O)O[C@H]1C)CC(O)C2C(=O)O (stereo partly shown) [nystatin] | sensitive | sensitive
